Entries after “also recorded” stand apart in the source; their conditions may differ.
Assays:
[1] = tested on: systemic fibrosis induced with hypochlorous acid (HOCI) in Balb/c mice; experiment: Histological analysis (hematoxylin/eosin, Masson's trichrome, Picrosirius red) of skin, heart and lung in HOCI-induced systemic fibrosis; format: in vivo; conditions: HOCI+Istra vs HOCI group, week 4 to 6
Description: Histological analysis, hematoxylin/eosin staining, Masson's trichrome and Picrosirius red: Tissues for histological and immunohistochemical analyses were fixed in 10% buffered formalin for 24 hours and then included according to standard paraffin protocol. The classic hematoxylin/eosin, Masson and Pricrosirius stainings were performed on 5-6 μm thickness tissue slices that were routinely processed using an automated histology preparer.
(§1) In fact, data obtained from literature indicate that it is possible to find a significant fibrosis in the major organs such as skin, heart, large vessels and lungs, already at the fourth week of induction of the disease: for this reason, the treatment with istradefylline started at the fourth week, carrying on both induction and treatment up to the sixth week.
Animals were divided into 3 groups of 7 animals each. A group was used as control group and was the group of untreated animals (“Sham”); a group was subcutaneously treated with 400 μl of an aqueous solution of hypochlorous acid (HOCI) for 6 weeks; lastly a group was subcutaneously treated with the above-mentioned solution of HOCI at the dose of 400 μl (for 6 weeks) and with istradefylline (from week 4 up to week 6) at the dose of 10 mg/kg per day intraperitoneally and 1 hour after HOCI injection (“HOCI+Istra”). […]

[2] = tested on: vimentin and b-catenin (Wnt/b-catenin pathway); experiment: Immunofluorescence for vimentin and b-catenin in skin, heart and lung in HOCI-induced systemic fibrosis; format: in vivo, Balb/c mice; conditions: HOCI+Istra vs HOCI group; all studied tissues (skin, lung, heart); 10 mg/kg per day intraperitoneally, week 4 to 6; FIG. 3
Description: Immunofluorescence methods to mark vimentin and b-catenin: For immunohistochemistry the 5 μm tissue slices were incubated with 10 mmol/pH 6.0 citrate buffer in a temperature of 98° C. for 20 min. To reduce the background fluorescence, tissues were kept in a humidified chamber in 2 mmol/L glycine for 30 minutes. For the blocking of nonspecific antigenic sites, incubation was performed for 1 hour with 5% fetal bovine serum diluted in PBS, with the addition of 3% serum bovine albumin and 1% Triton X-100. Primary antibodies (p-Ser552 b-catenin, diluted 1:200; Cell Signal Technologies; Vimentin monoclonal antibody diluted 1:800; Sigma-Aldrich) were diluted in PBS and kept for 1 hour at room temperature. A species-specific antibody from Vector Laboratories was used as a negative control of the reaction. Secondary antibodies labeled with anti-rabbit IgG-fluorescein isothiocyanate (green fluorescence) or with anti-mouse IgG Alexa Fluor 555 (fred fluorescence) were kept for 1 hour at room temperature before mounting the slides and to observe the reaction under the microscope. […]

[3] = tested on: genes encoding TGF-b, Wnt1, Wnt5, Wnt10, DKK1 and Col1A1; experiment: Quantitative Real-Time PCR of fibrosis-related genes in lungs in HOCI-induced systemic fibrosis; format: in vivo, Balb/c mice; conditions: HOCI+Istra vs HOCI group, 10 mg/kg per day intraperitoneally, week 4 to 6, FIG. 4
Description: Quantitative Real Time PCR Method: Reverse transcription was performed using the Super-Script IV Reverse Transcriptase synthesis kit (Thermo Fisher Scientific) and random primers as indicated in the manufacturer's protocol and 1 μl of cDNA was then used for the PCR reaction by using ready-made primers (to identify Wnt1, Wnt 5, Wnt 10, TGF-b, Collagen 1A1 and DKK1) and Thermo Fisher Scientific master mix in the QuantStudio 6 Flex instrument from Applied Biosystems.
as §1
Animals were divided into 3 groups of 7 animals each. […]
Lungs obtained from the animals of all the experimental groups were subjected to the extraction of the total RNA which was then analyzed with the quantitative Real-Time PCR and specific primers to evaluate the expression of the genes encoding for TGF-b, Wnt1, Wnt5, Wnt10, DKK1 and Col1A1 (type I collagen) measured compared to the expression of the housekeeping gene, b-actin.

Structure (SMILES): CCn1c(=O)c2c(nc(/C=C/c3ccc(OC)c(OC)c3)n2C)n(CC)c1=O [istradefylline, 8-[(1E)-2-(3,4-Dimethoxyphenyl)ethenyl]-1,3-diethyl-3,7-dihydro-7-methyl-1H-purine-2,6-dione]
- thickening in skin and at the myocardial and pulmonary level (hematoxylin/eosin) ([1]; istradefylline 10 mg/kg per day intraperitoneally, FIG. 1): significantly reduce the thickening
- collagen fibers deposition (Masson trichrome and Picrosirius red) ([1]; skin, lung and heart tissues, 10 mg/kg per day intraperitoneally, FIG. 2, 10 mg/kg/day): lower deposition of collagen fibers; also recorded: significant reduction collagen fibers deposition
- positivity of b-catenin (immunofluorescence) [2]: significantly reduced the positivity
- positivity of vimentin (immunofluorescence, fibroblast marker) [2]: significantly reduced the positivity
- expression of genes related to the fibrotic process (Wnt1, 5, 10 and TGF-b; 'all 3 targets') relative to b-actin [3]: significant reduction in the expression
